The text below walks through data of patent US6770778B2, “N-(4-substituted phenyl)-anthranilic acid hydroxamate esters” (Pfizer Inc, priority 2002, dated 2004).

One data set relates to MEK. Nature of the data set: Cellular assay for measuring MEK inhibition (inhibition of ERK phosphorylation in C26 cells). The conditions noted are these: murine colon 26 (C26) carcinoma cells, 1 hour at 37° C., Western blot of dually phosphorylated ERK1 and ERK2. Format: cell-based. The method, then: The evaluation of the compounds as MEK inhibitors is performed in an assay that measures their ability to inhibit phosphorylation of MAP kinase (ERK) in murine colon 26 (C26) carcinoma cells. Since ERK1 and ERK2 represent the only known substrates for MEK, measurement of inhibition of ERK phosphorylation in cells provides direct readout of cellular MEK inhibition by the compounds of the invention. Briefly, the assay involves treating exponentially growing C26 cells with varying concentrations of the test compound (or vehicle control) for 1 hour at 37° C. Cells are then rinsed free of compound/vehicle and lysed in a solution containing 70 mM NaCl, 50 mM glycerol phosphate, 10 mM HEPES, pH 7.4, 1% Triton X-100, 1 mM Na3VO4, 100 μM PMSF, 10 μM leupeptin, and 10 μM pepstatin. Supernatants are then subjected to gel electrophoresis and Western blotting using a primary antibody recognizing dually phosphorylated ERK1 and ERK2. To evaluate total MAPK levels, blots were subsequently ‘stripped’ and re-probed with a 1:1 mixture of polyclonal antibodies recognizing unphosphorylated ERK1 and ERK2.
The inhibition data generated by the above protocol is disclosed in Table 1. If several concentrations of inhibitor were tested, IC50 values (the concentration which gives 50% inhibition) were determined graphically from the dose response curve for % inhibition. Otherwise, percent inhibitions at measured concentrations are reported.
In general terms: Immunoblotting shows a protein as a band on a membrane.

Bounds are passed on as bounds.

For `COC(=O)c1ccc(Nc2c(C(=O)NOCCO)ccc(F)c2F)c(F)c1` [Example 3, Methyl 4-(2,3-difluoro-6-{[(2-hydroxyethoxy)amino]carbonyl}anilino)-3-fluorobenzoate], the melting point (commonly the temperature, or range, at which the solid turns liquid) was 162 to 165 °C. The IC50 – broadly, the concentration at which inhibition is half-maximal – in the data set on MEK stood at 27 nM.

In the case of `COC(=O)c1ccc(Nc2c(C(=O)NOCCO)ccc(F)c2F)cc1` [Example 1, Methyl 4-[[2.3-difluoro-6-[[(2-hydroxyethoxy)amino]carbonyl]phenyl]-amino]benzoate], the melting point was 158 to 160 °C. In the data set on MEK, this compound yielded a half-maximal inhibitory concentration (IC50) of over 1000 nM.

With `CNC(=O)c1ccc(Nc2c(C(=O)NOCCO)ccc(F)c2F)c(F)c1` [Example 7, 2-{2-fluoro-4-[(methylamino)carbonyl]anilino}-3,4-difluoro-N-(2-hydroxyethoxy)benzamide], the melting point was in the range of 197 to 200 °C. This compound also displayed an IC50 with MEK of over 10000 nM.

Take `COCC#Cc1ccc(Nc2c(C(=O)NOCCO)ccc(F)c2F)c(F)c1` [Example 5, 3,4-Difluoro-2-[[2-fluoro-4-(3-methoxy-1-propynyl)phenyl]amino]-N-(2-hydroxyethoxy)benzamide]: the melting point was 121 to 123 °C. Moreover, the IC50 with MEK is over 1000 nM.

`CC(=O)c1ccc(Nc2c(C(=O)NOCCO)ccc(F)c2F)c(Cl)c1` [Example 6, 2-(4-Acetyl-2-chloro-phenylamino)-3,4-difluoro-N-(2-hydroxy-ethoxy)-benzamide] displayed a melting point of 161.5 to 162.5 °C.

The compound `O=C(O)c1ccc(Nc2c(C(=O)NOCCO)ccc(F)c2F)cc1` [Example 2, 4-[[2,3-Difluoro-6-[[(2-hydroxyethoxy)amino]carbonyl]phenyl]amino]-benzoic acid] showed a melting point of 180 to 183 °C. This compound registered a half-inhibitory concentration (IC50) in the data set with MEK of 73 nM.

`O=C(O)c1ccc(Nc2c(C(=O)NOCCO)ccc(F)c2F)c(F)c1` [Example 4, 4-(2,3-Difluoro-6-{[(2-hydroxyethoxy)amino]carbonyl}anilino)-3-fluorobenzoic acid] gave a melting point of 196 to 200 °C. Besides, in the data set with MEK, the IC50 is over 1000 nM.
